This is an account of results in patent US7276508B2, “Indole derivatives useful for the treatment of CNS disorders” (H. Lundbeck A/S, priority 2000, dated 2007).

Structures can show the parent of a compound that is named as a salt.

One data set deals with T1, D4 receptor (Homo sapiens, UniProt P21917).
T1 sequence (P21917 1-419): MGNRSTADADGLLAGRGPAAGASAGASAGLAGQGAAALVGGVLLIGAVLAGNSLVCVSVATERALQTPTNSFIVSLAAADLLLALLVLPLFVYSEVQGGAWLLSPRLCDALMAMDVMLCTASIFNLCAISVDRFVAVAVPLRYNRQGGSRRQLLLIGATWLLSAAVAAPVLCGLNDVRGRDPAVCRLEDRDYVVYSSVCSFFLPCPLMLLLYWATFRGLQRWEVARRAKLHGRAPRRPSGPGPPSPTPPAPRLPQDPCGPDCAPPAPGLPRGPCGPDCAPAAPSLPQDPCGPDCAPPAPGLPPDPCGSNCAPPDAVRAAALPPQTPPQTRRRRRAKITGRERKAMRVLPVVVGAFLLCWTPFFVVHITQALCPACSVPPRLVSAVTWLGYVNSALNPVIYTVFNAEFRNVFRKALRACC
The note with it: various in vitro efficacy assays; cited from earlier work.

As for `CC(C)Oc1cccnc1N(C)C1CCN(Cc2ccccc2)CC1` [Compound U-101958], the “Functional activity at D4 receptor (literature)” value on D4 receptor is “partial D4 receptor agonists”.

In general, melting point refers to the temperature of the solid-liquid transition. In turn, `O=C1CCc2ccccc2N1CCCCN1CCC(c2c[nH]c3ccc(F)cc23)CC1` (as salt: hydrochloride) [Compound 4, 5-Fluoro-3-{1-[4-(2-oxo-3,4-dihydro-2H-quinolin-1-yl)butan-1-yl]piperidin-4-yl}-1H-indole] yielded a melting point of 212 to 213 °C.

For the compound `O=C1CCc2ccccc2N1CCCN1CC=C(c2c[nH]c3ccc(F)cc23)CC1` (as salt: oxalate) [Compound 3a, 5-Fluoro-3-{1-[3-(2-oxo-3,4-dihydro-2H-quinolin-1-yl)propan-1-yl]-3,6-dihydro-2H-pyridin-4-yl}-1H-indole], the melting point lay within 220 to 223 °C.
